Where a SMILES comes first, the peptide text is derived from it. Bridges are numbered along the chain shown (N, C = ends). [ ]: non-standard residue; d: D form. The star is where a group is joined. ξ: configuration not given here. Phe(4-COOH) = N[C@@H](Cc1ccc(C(=O)O)cc1)C(=O)O; Bip = N[C@@H](Cc1ccc(-c2ccccc2)cc1)C(=O)O; Phe(3-Me) = Cc1cccc(C[C@H](N)C(=O)O)c1; 4Pal = N[C@@H](Cc1ccncc1)C(=O)O; Cha = N[C@@H](CC1CCCCC1)C(=O)O; Ile(3ξ) = CCC(C)[C@H](N)C(=O)O; Thr(3ξ) = CC(O)[C@H](N)C(=O)O; NMeS = CN[C@@H](CO)C(=O)O; Carboxymethyl = O=C(O)C*; NMeA = CN[C@@H](C)C(=O)O; Aun = NCCCCCCCCCCC(=O)O; Dab = NCC[C@H](N)C(=O)O; AEEA = NCCOCCOCC(=O)O; Sar = CNCC(=O)O
What follows are compounds tested against T1, PD-1/PD-L1 interaction (PE-labeled human PD-L1-Ig binding to Jurkat cell line over-expressing human PD-1) (Homo sapiens, UniProt Q15116) (assay: Jurkat-PD-1 Cell Binding High-Content Screening Assay (CBA)). Conditions: Jurkat-hPD-1 cells, PE-labeled PD-L1-Ig 20 nM final; read-out: Jurkat HPD1 PDL1 IC50.
T1 construct: expressed in transfected cells; host or cells: Jurkat
Method in brief: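 Jurkat-hPD-1 cells (8×10^3/well) in DMEM with 10% fetal calf serum were preincubated with compound for 2 h at 37 °C. PE-labeled PD-L1-Ig was then added at 20 nM final for 1 h. Cells were fixed in paraformaldehyde with Hoechst 33342, washed and imaged by high-content imaging.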

T1 sequence (Q15116 25-288): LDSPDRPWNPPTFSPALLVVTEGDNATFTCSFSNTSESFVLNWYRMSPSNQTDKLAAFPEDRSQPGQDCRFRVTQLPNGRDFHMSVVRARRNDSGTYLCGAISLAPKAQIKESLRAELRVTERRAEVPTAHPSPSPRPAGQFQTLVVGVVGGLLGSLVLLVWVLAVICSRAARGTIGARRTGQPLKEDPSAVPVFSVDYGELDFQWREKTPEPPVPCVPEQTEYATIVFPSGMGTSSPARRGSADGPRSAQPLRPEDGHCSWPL

| IC50 [nM] | SMILES |
| --- | --- |
| 260 | CC(=O)NCCCC[C@@H]1NC(=O)[C@H](C(C)C)NC(=O)[C@H](CC2CCCCC2)NC(=O)[C@H](CCN)NC(=O)[C@@H](CC(C)C)NC(=O)[C@H](C)N(C)C(=O)[C@H](Cc2ccc(O)cc2)NC(=O)[C@H](Cc2ccc(-c3ccccc3)cc2)NC(=O)[C@H](C(C)C)NC(=O)[C@H](Cc2cccc(C)c2)NC(=O)[C@H](CC(=O)O)NC(=O)[C@H](Cc2ccc(OCC(=O)O)cc2)NC(=O)[C@H](CC(N)=O)NC(=O)CSC[C@@H](C(=O)N(C)CC(=O)NCCCCCCCCCCC(=O)O)NC1=O [Example 2271] ({CH2CO}-NY(Carboxymethyl)D[Phe(3-Me)]V[Bip]Y[NMeA][dL][Dab][Cha]VK(Ac)C[Sar][Aun]-OH; thioether N-14) |
| 231 | CC(=O)NCCCC[C@@H]1NC(=O)[C@H](C(C)C)NC(=O)[C@H](CC2CCCCC2)NC(=O)[C@H](CCN)NC(=O)[C@@H](CC(C)C)NC(=O)[C@H](C)N(C)C(=O)[C@H](Cc2ccc(O)cc2)NC(=O)[C@H](Cc2ccc(-c3ccccc3)cc2)NC(=O)[C@H](C(C)C)NC(=O)[C@H](Cc2cccc(C)c2)NC(=O)[C@H](CC(=O)O)NC(=O)[C@H](Cc2ccc(OCC(=O)O)cc2)NC(=O)[C@H](Cc2cnc[nH]2)NC(=O)CSC[C@@H](C(=O)N(C)CC(=O)NCCCCCCCCCCC(=O)O)NC1=O [Example 2272] ({CH2CO}-HY(Carboxymethyl)D[Phe(3-Me)]V[Bip]Y[NMeA][dL][Dab][Cha]VK(Ac)C[Sar][Aun]-OH; thioether N-14) |
| 321 | CC(=O)NCCCC[C@@H]1NC(=O)[C@H](C(C)C)NC(=O)[C@H](CC2CCCCC2)NC(=O)[C@H](CCN)NC(=O)[C@@H](CC(C)C)NC(=O)[C@H](C)N(C)C(=O)[C@H](Cc2ccc(O)cc2)NC(=O)[C@H](Cc2ccc(-c3ccccc3)cc2)NC(=O)[C@H](C(C)C)NC(=O)[C@H](Cc2cccc(C)c2)NC(=O)[C@H](CC(=O)O)NC(=O)[C@H](Cc2ccc(OCC(=O)O)cc2)NC(=O)[C@H](CCCNC(=N)N)NC(=O)CSC[C@@H](C(=O)N(C)CC(=O)NCCCCCCCCCCC(=O)O)NC1=O [Example 2273] ({CH2CO}-RY(Carboxymethyl)D[Phe(3-Me)]V[Bip]Y[NMeA][dL][Dab][Cha]VK(Ac)C[Sar][Aun]-OH; thioether N-14) |
| 85.5 | CC(=O)NCCCC[C@@H]1NC(=O)[C@H](C(C)C)NC(=O)[C@H](CC2CCCCC2)NC(=O)[C@H](CCN)NC(=O)[C@@H](CC(C)C)NC(=O)[C@H](C)N(C)C(=O)[C@H](Cc2ccc(O)cc2)NC(=O)[C@H](Cc2ccc(-c3ccccc3)cc2)NC(=O)[C@H](C(C)C)NC(=O)[C@H](Cc2cccc(C)c2)NC(=O)[C@H](CC(=O)O)NC(=O)[C@H](Cc2ccc(OCC(=O)O)cc2)NC(=O)[C@H](C(C)O)NC(=O)CSC[C@@H](C(=O)N(C)CC(=O)NCCCCCCCCCCC(=O)O)NC1=O (stereo partly drawn) [Example 2274] ({CH2CO}-[Thr(3ξ)]Y(Carboxymethyl)D[Phe(3-Me)]V[Bip]Y[NMeA][dL][Dab][Cha]VK(Ac)C[Sar][Aun]-OH; thioether N-14) |
| 282 | CC(=O)NCCCC[C@@H]1NC(=O)[C@H](C(C)C)NC(=O)[C@H](CC2CCCCC2)NC(=O)[C@H](CCN)NC(=O)[C@@H](CC(C)C)NC(=O)[C@H](C)N(C)C(=O)[C@H](Cc2ccc(O)cc2)NC(=O)[C@H](Cc2ccc(-c3ccccc3)cc2)NC(=O)[C@H](C(C)C)NC(=O)[C@H](Cc2cccc(C)c2)NC(=O)[C@H](CC(=O)O)NC(=O)[C@H](Cc2ccc(OCC(=O)O)cc2)NC(=O)[C@H](Cc2ccc(O)cc2)NC(=O)CSC[C@@H](C(=O)N(C)CC(=O)NCCCCCCCCCCC(=O)O)NC1=O [Example 2275] ({CH2CO}-YY(Carboxymethyl)D[Phe(3-Me)]V[Bip]Y[NMeA][dL][Dab][Cha]VK(Ac)C[Sar][Aun]-OH; thioether N-14) |
| 174 | CC(=O)NCCCC[C@@H]1NC(=O)[C@H](C(C)C)NC(=O)[C@H](CC2CCCCC2)NC(=O)[C@H](CCN)NC(=O)[C@@H](CC(C)C)NC(=O)[C@H](C)N(C)C(=O)[C@H](Cc2ccc(O)cc2)NC(=O)[C@H](Cc2ccc(-c3ccccc3)cc2)NC(=O)[C@H](C(C)C)NC(=O)[C@H](Cc2cccc(C)c2)NC(=O)[C@H](CC(=O)O)NC(=O)[C@H](Cc2ccc(OCC(=O)O)cc2)NC(=O)[C@H](Cc2ccncc2)NC(=O)CSC[C@@H](C(=O)N(C)CC(=O)NCCCCCCCCCCC(=O)O)NC1=O [Example 2276] ({CH2CO}-[4Pal]Y(Carboxymethyl)D[Phe(3-Me)]V[Bip]Y[NMeA][dL][Dab][Cha]VK(Ac)C[Sar][Aun]-OH; thioether N-14) |
| 18.7 | Cc1cccc(C[C@@H]2NC(=O)[C@H](CC(=O)O)NC(=O)[C@H](Cc3ccc(OCC(=O)O)cc3)NC(=O)[C@H](CO)N(C)C(=O)CSC[C@@H](C(=O)NCCOCCOCC(=O)NCCCCCCCCCCC(=O)O)NC(=O)[C@H](CCCNC(=N)N)NC(=O)[C@H](C(C)C)NC(=O)[C@H](CC3CCCCC3)NC(=O)[C@H](CCN)NC(=O)[C@@H](CC(C)C)NC(=O)[C@H](C)N(C)C(=O)[C@H](C(C)C)NC(=O)[C@H](Cc3ccc(-c4ccccc4)cc3)NC(=O)[C@H](CC(C)C)NC2=O)c1 [Example 2277] ({CH2CO}-[NMeS]Y(Carboxymethyl)D[Phe(3-Me)]L[Bip]V[NMeA][dL][Dab][Cha]VRC[AEEA][Aun]-OH; thioether N-14) |
| 34.2 | Cc1cccc(C[C@@H]2NC(=O)[C@H](CC(=O)O)NC(=O)[C@H](Cc3ccc(C(=O)O)cc3)NC(=O)[C@H](Cc3ccc(OCC(=O)O)cc3)NC(=O)CSC[C@@H](C(=O)NCCOCCOCC(=O)NCCCCCCCCCCC(=O)O)NC(=O)[C@H](CCCNC(=N)N)NC(=O)[C@H](C(C)C)NC(=O)[C@H](CC3CCCCC3)NC(=O)[C@H](CCN)NC(=O)[C@@H](CC(C)C)NC(=O)[C@H](CO)N(C)C(=O)[C@H](C(C)C)NC(=O)[C@H](Cc3ccc(-c4ccccc4)cc3)NC(=O)[C@H](CC(C)C)NC2=O)c1 [Example 2278] ({CH2CO}-Y(Carboxymethyl)[Phe(4-COOH)]D[Phe(3-Me)]L[Bip]V[NMeS][dL][Dab][Cha]VRC[AEEA][Aun]-OH; thioether N-14) |
| 21.1 | CCC(C)[C@@H]1NC(=O)[C@H](Cc2ccc(-c3ccccc3)cc2)NC(=O)[C@H](CC(C)C)NC(=O)[C@H](Cc2c[nH]c3ccccc23)NC(=O)[C@H](CC(=O)O)NC(=O)[C@H](Cc2ccc(C(=O)O)cc2)NC(=O)[C@H](Cc2ccc(OCC(=O)O)cc2)NC(=O)CSC[C@@H](C(=O)NCCOCCOCC(=O)NCCCCCCCCCCC(=O)O)NC(=O)[C@H](CCCNC(=N)N)NC(=O)[C@H](C(C)C)NC(=O)[C@H](CC2CCCCC2)NC(=O)[C@H](CCN)NC(=O)[C@@H](CC(C)C)NC(=O)[C@H](CO)N(C)C1=O (stereo partly drawn) [Example 2279] ({CH2CO}-Y(Carboxymethyl)[Phe(4-COOH)]DWL[Bip][Ile(3ξ)][NMeS][dL][Dab][Cha]VRC[AEEA][Aun]-OH; thioether N-14) |
| 104 | Cc1cccc(C[C@@H]2NC(=O)[C@H](CC(=O)O)NC(=O)[C@H](Cc3ccc(OCC(=O)O)cc3)NC(=O)[C@H](Cc3ccc(OCC(=O)O)cc3)NC(=O)CSC[C@@H](C(=O)NCCOCCOCC(=O)NCCCCCCCCCCC(=O)O)NC(=O)[C@H](CCCNC(=N)N)NC(=O)[C@H](C(C)C)NC(=O)[C@H](CC3CCCCC3)NC(=O)[C@H](CCN)NC(=O)[C@@H](CC(C)C)NC(=O)[C@H](C)N(C)C(=O)[C@H](Cc3ccc(O)cc3)NC(=O)[C@H](Cc3ccc(-c4ccccc4)cc3)NC(=O)[C@H](CC(C)C)NC2=O)c1 [Example 2280] ({CH2CO}-Y(Carboxymethyl)Y(Carboxymethyl)D[Phe(3-Me)]L[Bip]Y[NMeA][dL][Dab][Cha]VRC[AEEA][Aun]-OH; thioether N-14) |
| 35.3 | CC(=O)NCCCC[C@@H]1NC(=O)[C@H](Cc2ccc(-c3ccccc3)cc2)NC(=O)[C@H](CC(C)C)NC(=O)[C@H](Cc2cccc(C)c2)NC(=O)[C@H](CC(=O)O)NC(=O)[C@H](Cc2ccc(C(=O)O)cc2)NC(=O)[C@H](Cc2ccc(OCC(=O)O)cc2)NC(=O)CSC[C@@H](C(=O)NCCOCCOCC(=O)NCCCCCCCCCCC(=O)O)NC(=O)[C@H](C(C)O)NC(=O)[C@H](C(C)C)NC(=O)[C@H](CC2CCCCC2)NC(=O)[C@H](CCN)NC(=O)[C@@H](CC(C)C)NC(=O)[C@H](C)N(C)C1=O (stereo partly drawn) [Example 2282] ({CH2CO}-Y(Carboxymethyl)[Phe(4-COOH)]D[Phe(3-Me)]L[Bip]K(Ac)[NMeA][dL][Dab][Cha]V[Thr(3ξ)]C[AEEA][Aun]-OH; thioether N-14) |
| 20.5 | CC(=O)NCCCC[C@@H]1NC(=O)[C@H](Cc2ccc(-c3ccccc3)cc2)NC(=O)[C@H](C(C)C)NC(=O)[C@H](Cc2cccc(C)c2)NC(=O)[C@H](CC(=O)O)NC(=O)[C@H](Cc2ccc(C(=O)O)cc2)NC(=O)[C@H](Cc2ccc(OCC(=O)O)cc2)NC(=O)CSC[C@@H](C(=O)NCCOCCOCC(=O)NCCCCCCCCCCC(=O)O)NC(=O)[C@H](C(C)O)NC(=O)[C@H](C(C)C)NC(=O)[C@H](CC2CCCCC2)NC(=O)[C@H](CCN)NC(=O)[C@@H](CC(C)C)NC(=O)[C@H](C)N(C)C1=O (stereo partly drawn) [Example 2283] ({CH2CO}-Y(Carboxymethyl)[Phe(4-COOH)]D[Phe(3-Me)]V[Bip]K(Ac)[NMeA][dL][Dab][Cha]V[Thr(3ξ)]C[AEEA][Aun]-OH; thioether N-14) |
| 23.6 | Cc1cccc(C[C@@H]2NC(=O)[C@H](CC(=O)O)NC(=O)[C@H](Cc3ccc(C(=O)O)cc3)NC(=O)[C@H](Cc3ccc(OCC(=O)O)cc3)NC(=O)CSC[C@@H](C(=O)NCCOCCOCC(=O)NCCCCCCCCCCC(=O)O)NC(=O)[C@H](C(C)O)NC(=O)[C@H](C(C)C)NC(=O)[C@H](CC3CCCCC3)NC(=O)[C@H](CCN)NC(=O)[C@@H](CC(C)C)NC(=O)[C@H](C)N(C)C(=O)[C@H](CCC(N)=O)NC(=O)[C@H](Cc3ccc(-c4ccccc4)cc3)NC(=O)[C@H](C(C)C)NC2=O)c1 (stereo partly drawn) [Example 2284] ({CH2CO}-Y(Carboxymethyl)[Phe(4-COOH)]D[Phe(3-Me)]V[Bip]Q[NMeA][dL][Dab][Cha]V[Thr(3ξ)]C[AEEA][Aun]-OH; thioether N-14) |

From patent US20260070945A1, “MACROCYCLIC IMMUNOMODULATORS” (Bristol-Myers Squibb Company, priority 2022, published 2026)
